Measurements: patent US8575320B2, “Compositions and methods for separating, characterizing and administering soluble selenoglycoproteins” (Alltech, Inc., priority 2010, dated 2013)

System: gene expression in chicken breast muscle tissue
Test: Microarray gene expression profile in breast muscle of broilers fed different selenium sources
Assay type: in vivo
Conditions: P<0.05, FC>1.2 vs Control, 0.3 ppm Se diet, 18 days
Method: Breast muscle tissue from chickens referenced in Example 3 was used to assess similarities and differences in gene expression profiles elicited by the following dietary treatments: Treatment 1-basal (Control); Treatment 2-Control+0.3 ppm sodium-selenite (SS); Treatment 3-Control+0.3 ppm SEL-PLEX; Treatment 6-0.3 ppm SGP fraction extracted from SEL-PLEX (SP) at pH 4.0. […] As such, experiments were conducted during development of embodiments of the invention in order to determine if animals receiving SGP fraction pH 4.0 experienced similar in vivo effects (e.g., gene expression changes) observed in SP fed animals, or whether significant, measurable differences existed.
At 18-days of age, five chickens from each treatment group (described above and in Tables 3 and 4) were randomly selected and euthanized by argon asphyxiation, followed by cervical dislocation. Samples of breast muscle tissue (1 gram) were rapidly removed and flash frozen in liquid nitrogen. Samples were stored at −80° C. until analyzed.
Total RNA was isolated from frozen tissue using TRIZOL reagent (INVITROGEN, Carlsbad, Calif.) according to the manufacturer's protocol and purified using a RNEASY kit (QIAGEN, Valencia, Calif.). Total RNA was quantified by absorbance at 260 nm and integrity was confirmed by agarose gel electrophoresis and ethidium bromide staining of the 28S and 18S bands. […]

SMILES: O=[Se](O)O [SS, sodium selenite]
- number of genes significantly changed: 283
